Measured values published in ChEMBL document CHEMBL3046568, “Synthesis, antimicrobial and DNA cleavage studies of some 4-aryloxymethylcoumarins obtained by reaction of 4-bromomethylcoumarins with bidentate nucleophiles” (2012).
≈ marks a conversion by molar mass, not a printed value. Calls of active or inactive are those of the source. The rule behind the calls is not given here.

Assays:
Aspergillus niger [1] = assay: Induction of Aspergillus niger DNA cleavage at 25 ug after 2 hr by agarose gel electrophoresis
Escherichia coli [2] = assay: Antibacterial activity against Escherichia coli MTCC 1089 after 24 hr by disk diffusion method; format: functional; details: for MIC: Escherichia coli, MTCC 1089, 24 h
Pseudomonas aeruginosa = assay: Antibacterial activity against Pseudomonas aeruginosa MTCC 1034 after 24 hr by disk diffusion method; format: functional; details: for MIC: Pseudomonas aeruginosa, MTCC 1034, 24 h
Bacillus subtilis = assay: Antibacterial activity against Bacillus subtilis MTCC 297 after 24 hr by disk diffusion method; format: functional; details: for MIC: Bacillus subtilis, MTCC 297, 24 h
Candida albicans = assay: Antifungal activity against Candida albicans after 3 to 4 days by serial dilution method; format: functional; details: for MIC: Candida albicans
Fusarium oxysporum = assay: Antifungal activity against Fusarium oxysporum after 3 to 4 days by serial dilution method; format: functional; details: for MIC: Fusarium oxysporum
Aspergillus fumigatus = assay: Antifungal activity against Aspergillus fumigatus after 3 to 4 days by serial dilution method; format: functional; details: for MIC: Aspergillus fumigatus
Penicillium chrysogenum = assay: Antifungal activity against Penicillium chrysogenum after 3 to 4 days by serial dilution method; format: functional; details: for MIC: Penicillium chrysogenum
Enterococcus faecalis = assay: Antibacterial activity against Enterococcus faecalis MTCC 3382 after 24 hr by disk diffusion method; format: functional; details: for MIC: Enterococcus faecalis, MTCC 3382, 24 h
Escherichia coli [3] = assay: Induction of Escherichia coli MTCC 1089 DNA cleavage at 50 ug after 2 hr by agarose gel electrophoresis
Staphylococcus aureus [4] = assay: Antibacterial activity against Staphylococcus aureus MTCC 3160 after 24 hr by disk diffusion method; format: functional; details: for MIC: Staphylococcus aureus, MTCC 3160, 24 h
Staphylococcus aureus [5] = assay: Induction of Staphylococcus aureus MTCC 3160 DNA cleavage at 50 ug after 2 hr by agarose gel electrophoresis
Aspergillus niger [6] = assay: Induction of Aspergillus niger DNA cleavage at 50 ug after 2 hr by agarose gel electrophoresis
Aspergillus niger [7] = assay: Antifungal activity against Aspergillus niger after 3 to 4 days by serial dilution method; format: functional; details: for MIC: Aspergillus niger
Mucor fuscus = assay: Antifungal activity against Mucor fuscus after 3 to 4 days by serial dilution method; format: functional; details: for MIC: Mucor fuscus
Klebsiella pneumoniae = assay: Antibacterial activity against Klebsiella pneumoniae MTCC 3384 after 24 hr by disk diffusion method; format: functional; details: for MIC: Klebsiella pneumoniae, MTCC 3384, 24 h

Structure (SMILES)	MIC (Escherichia coli [2])	inhibition zone (IZ) (Pseudomonas aeruginosa)	MIC (Pseudomonas aeruginosa)	inhibition zone (IZ) (Bacillus subtilis)	MIC (Bacillus subtilis)	inhibition zone (IZ) (Candida albicans)	MIC (Candida albicans)	MIC (Fusarium oxysporum)	inhibition zone (IZ) (Aspergillus fumigatus)	MIC (Aspergillus fumigatus)	inhibition zone (IZ) (Penicillium chrysogenum)	MIC (Penicillium chrysogenum)	inhibition zone (IZ) (Enterococcus faecalis)	MIC (Enterococcus faecalis)	Activity (Escherichia coli [3])	inhibition zone (IZ) (Staphylococcus aureus [4])	MIC (Staphylococcus aureus [4])	Activity (Staphylococcus aureus [5])	Activity (Aspergillus niger [6])	inhibition zone (IZ) (Aspergillus niger [7])	other results
O=c1cc(COc2cccc(OCc3cc(=O)oc4ccc(Cl)cc34)c2)c2cc(Cl)ccc2o1	12.5 µg/mL (≈ 25.2 µM)	22 mm	6.25 µg/mL (≈ 12.6 µM)	19 mm	6.25 µg/mL (≈ 12.6 µM)	19 mm	6.25 µg/mL (≈ 12.6 µM)	12.5 µg/mL (≈ 25.2 µM)	22 mm	6.25 µg/mL (≈ 12.6 µM)	20 mm	6.25 µg/mL (≈ 12.6 µM)	23 mm	6.25 µg/mL (≈ 12.6 µM)	Active	20 mm	6.25 µg/mL (≈ 12.6 µM)	Active	Active	24 mm	Activity (Aspergillus niger [1]): Active; inhibition zone (IZ) (Escherichia coli [2]): 15 mm; inhibition zone (IZ) (Fusarium oxysporum): 16 mm; MIC (Aspergillus niger [7]): 6.25 µg/mL (≈ 12.6 µM); inhibition zone (IZ) (Mucor fuscus): 22 mm; MIC (Mucor fuscus): 6.25 µg/mL (≈ 12.6 µM); inhibition zone (IZ) (Klebsiella pneumoniae): 18 mm; MIC (Klebsiella pneumoniae): 6.25 µg/mL (≈ 12.6 µM)
O=c1cc(COc2cccc(OCc3cc(=O)oc4c3ccc3ccccc34)c2)c2ccc3ccccc3c2o1	25 µg/mL (≈ 47.5 µM)	17 mm	12.5 µg/mL (≈ 23.7 µM)	11 mm	25 µg/mL (≈ 47.5 µM)	13 mm	12.5 µg/mL (≈ 23.7 µM)	25 µg/mL (≈ 47.5 µM)	15 mm	12.5 µg/mL (≈ 23.7 µM)	14 mm	25 µg/mL (≈ 47.5 µM)	12 mm	25 µg/mL (≈ 47.5 µM)	inactive	11 mm	25 µg/mL (≈ 47.5 µM)	inactive	inactive	15 mm	inhibition zone (IZ) (Escherichia coli [2]): 12 mm; inhibition zone (IZ) (Fusarium oxysporum): 14 mm; MIC (Aspergillus niger [7]): 12.5 µg/mL (≈ 23.7 µM); inhibition zone (IZ) (Mucor fuscus): 14 mm; MIC (Mucor fuscus): 25 µg/mL (≈ 47.5 µM); inhibition zone (IZ) (Klebsiella pneumoniae): 16 mm; MIC (Klebsiella pneumoniae): 6.25 µg/mL (≈ 11.9 µM)
CC(=O)Nc1cccc(OCc2cc(=O)oc3ccc(Cl)cc23)c1	12.5 µg/mL (≈ 36.4 µM)	23 mm	6.25 µg/mL (≈ 18.2 µM)	20 mm	6.25 µg/mL (≈ 18.2 µM)	20 mm	6.25 µg/mL (≈ 18.2 µM)	12.5 µg/mL (≈ 36.4 µM)	22 mm	6.25 µg/mL (≈ 18.2 µM)	23 mm	6.25 µg/mL (≈ 18.2 µM)	23 mm	6.25 µg/mL (≈ 18.2 µM)	Active	21 mm	6.25 µg/mL (≈ 18.2 µM)	Active	Active	22 mm	Activity (Aspergillus niger [1]): Active; inhibition zone (IZ) (Escherichia coli [2]): 16 mm; inhibition zone (IZ) (Fusarium oxysporum): 16 mm; MIC (Aspergillus niger [7]): 6.25 µg/mL (≈ 18.2 µM); inhibition zone (IZ) (Mucor fuscus): 22 mm; MIC (Mucor fuscus): 6.25 µg/mL (≈ 18.2 µM); inhibition zone (IZ) (Klebsiella pneumoniae): 19 mm; MIC (Klebsiella pneumoniae): 6.25 µg/mL (≈ 18.2 µM)
CCN(CC)c1cccc(OCc2cc(=O)oc3ccc(Br)cc23)c1	12.5 µg/mL (≈ 31.1 µM)	23 mm	6.25 µg/mL (≈ 15.5 µM)	17 mm	6.25 µg/mL (≈ 15.5 µM)	16 mm	12.5 µg/mL (≈ 31.1 µM)	25 µg/mL (≈ 62.1 µM)	20 mm	6.25 µg/mL (≈ 15.5 µM)	21 mm	6.25 µg/mL (≈ 15.5 µM)	19 mm	6.25 µg/mL (≈ 15.5 µM)	Active	18 mm	6.25 µg/mL (≈ 15.5 µM)	Active	Active	20 mm	inhibition zone (IZ) (Escherichia coli [2]): 15 mm; inhibition zone (IZ) (Fusarium oxysporum): 14 mm; MIC (Aspergillus niger [7]): 6.25 µg/mL (≈ 15.5 µM); inhibition zone (IZ) (Mucor fuscus): 18 mm; MIC (Mucor fuscus): 12.5 µg/mL (≈ 31.1 µM); inhibition zone (IZ) (Klebsiella pneumoniae): 18 mm; MIC (Klebsiella pneumoniae): 6.25 µg/mL (≈ 15.5 µM)
CCN(CC)c1cccc(OCc2cc(=O)oc3ccc4ccccc4c23)c1	12.5 µg/mL (≈ 33.5 µM)	17 mm	12.5 µg/mL (≈ 33.5 µM)	11 mm	25 µg/mL (≈ 66.9 µM)	13 mm	12.5 µg/mL (≈ 33.5 µM)	25 µg/mL (≈ 66.9 µM)	14 mm	12.5 µg/mL (≈ 33.5 µM)	17 mm	12.5 µg/mL (≈ 33.5 µM)	14 mm	12.5 µg/mL (≈ 33.5 µM)	inactive	13 mm	12.5 µg/mL (≈ 33.5 µM)	inactive	inactive	17 mm	inhibition zone (IZ) (Escherichia coli [2]): 14 mm; inhibition zone (IZ) (Fusarium oxysporum): 14 mm; MIC (Aspergillus niger [7]): 12.5 µg/mL (≈ 33.5 µM); inhibition zone (IZ) (Mucor fuscus): 14 mm; MIC (Mucor fuscus): 25 µg/mL (≈ 66.9 µM); inhibition zone (IZ) (Klebsiella pneumoniae): 15 mm; MIC (Klebsiella pneumoniae): 12.5 µg/mL (≈ 33.5 µM)
O=c1cc(COc2cccc(OCc3cc(=O)oc4ccc5ccccc5c34)c2)c2c(ccc3ccccc32)o1	25 µg/mL (≈ 47.5 µM)	17 mm	12.5 µg/mL (≈ 23.7 µM)	12 mm	25 µg/mL (≈ 47.5 µM)	13 mm	12.5 µg/mL (≈ 23.7 µM)	25 µg/mL (≈ 47.5 µM)	15 mm	12.5 µg/mL (≈ 23.7 µM)	15 mm	25 µg/mL (≈ 47.5 µM)	11 mm	25 µg/mL (≈ 47.5 µM)	inactive	12 mm	25 µg/mL (≈ 47.5 µM)	inactive	inactive	16 mm	inhibition zone (IZ) (Escherichia coli [2]): 11 mm; inhibition zone (IZ) (Fusarium oxysporum): 13 mm; MIC (Aspergillus niger [7]): 12.5 µg/mL (≈ 23.7 µM); inhibition zone (IZ) (Mucor fuscus): 15 mm; MIC (Mucor fuscus): 25 µg/mL (≈ 47.5 µM); inhibition zone (IZ) (Klebsiella pneumoniae): 14 mm; MIC (Klebsiella pneumoniae): 12.5 µg/mL (≈ 23.7 µM)
Cc1ccc2oc(=O)cc(COc3cccc(OCc4cc(=O)oc5ccc(C)cc45)c3)c2c1	> 100 µg/mL	13 mm	25 µg/mL (≈ 55 µM)	14 mm	12.5 µg/mL (≈ 27.5 µM)	9 mm	25 µg/mL (≈ 55 µM)	> 100 µg/mL	17 mm	12.5 µg/mL (≈ 27.5 µM)	16 mm	25 µg/mL (≈ 55 µM)	16 mm	12.5 µg/mL (≈ 27.5 µM)	inactive	14 mm	12.5 µg/mL (≈ 27.5 µM)	inactive	inactive	17 mm	MIC (Aspergillus niger [7]): 12.5 µg/mL (≈ 27.5 µM); inhibition zone (IZ) (Mucor fuscus): 16 mm; MIC (Mucor fuscus): 12.5 µg/mL (≈ 27.5 µM); inhibition zone (IZ) (Klebsiella pneumoniae): 12 mm; MIC (Klebsiella pneumoniae): 12.5 µg/mL (≈ 27.5 µM)
CC(=O)Nc1cccc(OCc2cc(=O)oc3ccc(C)cc23)c1	25 µg/mL (≈ 77.3 µM)	16 mm	12.5 µg/mL (≈ 38.7 µM)	15 mm	12.5 µg/mL (≈ 38.7 µM)	9 mm	25 µg/mL (≈ 77.3 µM)	50 µg/mL (≈ 155 µM)	17 mm	12.5 µg/mL (≈ 38.7 µM)	19 mm	6.25 µg/mL (≈ 19.3 µM)	12 mm	25 µg/mL (≈ 77.3 µM)	inactive	14 mm	12.5 µg/mL (≈ 38.7 µM)	inactive	inactive	20 mm	inhibition zone (IZ) (Escherichia coli [2]): 11 mm; inhibition zone (IZ) (Fusarium oxysporum): 10 mm; MIC (Aspergillus niger [7]): 6.25 µg/mL (≈ 19.3 µM); inhibition zone (IZ) (Mucor fuscus): 15 mm; MIC (Mucor fuscus): 25 µg/mL (≈ 77.3 µM); inhibition zone (IZ) (Klebsiella pneumoniae): 12 mm; MIC (Klebsiella pneumoniae): 12.5 µg/mL (≈ 38.7 µM)
CCN(CC)c1cccc(OCc2cc(=O)oc3ccc(C)cc23)c1	50 µg/mL (≈ 148 µM)	15 mm	25 µg/mL (≈ 74.1 µM)	14 mm	12.5 µg/mL (≈ 37 µM)	10 mm	25 µg/mL (≈ 74.1 µM)	50 µg/mL (≈ 148 µM)	16 mm	12.5 µg/mL (≈ 37 µM)	17 mm	12.5 µg/mL (≈ 37 µM)	17 mm	6.25 µg/mL (≈ 18.5 µM)	inactive	15 mm	12.5 µg/mL (≈ 37 µM)	inactive	inactive	18 mm	inhibition zone (IZ) (Escherichia coli [2]): 10 mm; inhibition zone (IZ) (Fusarium oxysporum): 9 mm; MIC (Aspergillus niger [7]): 12.5 µg/mL (≈ 37 µM); inhibition zone (IZ) (Mucor fuscus): 16 mm; MIC (Mucor fuscus): 12.5 µg/mL (≈ 37 µM); inhibition zone (IZ) (Klebsiella pneumoniae): 13 mm
CCN(CC)c1cccc(OCc2cc(=O)oc3ccc(Cl)cc23)c1	12.5 µg/mL (≈ 34.9 µM)	25 mm	6.25 µg/mL (≈ 17.5 µM)	20 mm	6.25 µg/mL (≈ 17.5 µM)	18 mm	6.25 µg/mL (≈ 17.5 µM)	12.5 µg/mL (≈ 34.9 µM)	22 mm	6.25 µg/mL (≈ 17.5 µM)	23 mm	6.25 µg/mL (≈ 17.5 µM)	22 mm	6.25 µg/mL (≈ 17.5 µM)	Active	21 mm	6.25 µg/mL (≈ 17.5 µM)	Active	Active	22 mm	Activity (Aspergillus niger [1]): Active; inhibition zone (IZ) (Escherichia coli [2]): 15 mm; inhibition zone (IZ) (Fusarium oxysporum): 16 mm; MIC (Aspergillus niger [7]): 6.25 µg/mL (≈ 17.5 µM); inhibition zone (IZ) (Mucor fuscus): 21 mm; MIC (Mucor fuscus): 6.25 µg/mL (≈ 17.5 µM); inhibition zone (IZ) (Klebsiella pneumoniae): 19 mm; MIC (Klebsiella pneumoniae): 6.25 µg/mL (≈ 17.5 µM)
